# Assay: Inhibition of [14C]arachidonic acid conversion to 5-HETE by broken cell 5-lipoxygenase in vitro (guinea pig PMN)
row,Structure (SMILES),IC50
1,COc1ccc2c(c1C(=O)NO)Nc1ccccc1O2 [2-Methoxy-10H-phenoxazine-1-carboxylic acid hydroxyamide],420 nM
2,COC(=O)c1cccc2c1Nc1ccccc1O2 [10H-Phenoxazine-1-carboxylic acid methyl ester],770 nM
3,O=C(O)c1cccc2c1Nc1ccccc1O2 [10H-Phenoxazine-1-carboxylic acid],610 nM
4,CN(O)C(=O)c1ccc2c(c1)Nc1ccccc1O2 [10H-Phenoxazine-2-carboxylic acid hydroxy-methyl-amide],87 nM
5,COC(=O)c1ccc2c(c1)Nc1ccccc1O2 [10H-Phenoxazine-2-carboxylic acid methyl ester],65 nM
6,O=C(O)c1ccc2c(c1)Nc1ccccc1O2 [10H-Phenoxazine-2-carboxylic acid],4600 nM
7,c1ccc2c(c1)Nc1ccccc1O2 [10H-Phenoxazine],20 nM
8,CCOC(=O)/C=C/c1ccc2c(c1)Nc1ccccc1O2 [(E)-3-(10H-Phenoxazin-2-yl)-acrylic acid ethyl ester],35 nM
9,O=C(O)/C=C/c1ccc2c(c1)Nc1ccccc1O2 [(E)-3-(10H-Phenoxazin-2-yl)-acrylic acid],1200 nM
10,CN(O)C(=O)/C=C/c1ccc2c(c1)Nc1ccccc1O2 [(E)-N-Hydroxy-N-methyl-3-(10H-phenoxazin-2-yl)-acrylamide],85 nM
